According to patent US5340833A, “Urokinase inhibitors” (Eisai Co., Ltd., priority 1992, dated 1994):
pIC50: −log10 of the molar value. Structures can show the parent of a compound that is named as a salt. Where two headings read alike, the source gives them in different places.

What was measured:
Assay type in all cases: biochemical
[1] = target: T1, urokinase (Homo sapiens, UniProt P00749); assay: Urokinase Indirect (Plasminogen-Linked) Assay; conditions: Table 3 column 4, simple number, unit inferred; read-out: uPA Indirect (plasminogen-linked) IC50
T1 construct: human high molecular weight urokinase; purchased American Diagnostica, Greenwich, Conn
Experimental: (ii) An indirect plasminogen-linked assay in which urokinase proteolytically activates plasminogen, forming plasmin which then cleaves a synthetic tripeptide pNA plasmin substrate.
Incubations were carried out at 22° C. for 45-60 minutes or until adequate color developed. Color qas quantitated as in the urokinase direct assay above. Parallel incubations were performed with and without plasminogen, and corrected absorbance values were obtained by subtracting values obtained without plasminogen from those obtained with plasminogen, eliminating any contribution of direct cleavage, if any, of plasmin substrate by urokinase.

[2] = target: T2, human two-chain tPA (Homo sapiens, UniProt P00750); assay: tPA Indirect (Plasminogen-Linked) Assay (tPA Direct Assay result where lower); conditions: for tPA/UPA ratio: ratio with respect to urokinase indirect plasminogen-linked IC50, larger = greater specificity for urokinase; for pIC50: tPA Indirect Plasminogen-Linked Assay, in rare cases direct assay result if lower, read-out: tPA IC50; for inhibition at 1000 µM: read-out: tPA activity observed relative to inhibitor-free controls
T2 construct: human two-chain tPA was substituted for urokinase; purchased American Diagnostica
Text: (iv) Both direct and plasminogen-linked pNA assays for tPA, the other mammalian plasminogen activator and the key initiator of blood clot dissolution or fibrinolysis. Since urokinase and tPA share an absolute specificity for the same peptide bond in plasminogen, urokinase inhibitors designed to block cellular invasiveness must be highly specific for urokinase over tPA in order to avoid serious thrombotic side effects secondary to undesired blockage of normal fibrinolysis. […] Spectrozyme tPA®, American Diagnostica) was substituted for urokinase substrate.

[3] = target: T3, human plasmin (Homo sapiens, UniProt P00747); assay: Plasmin Assay; conditions: for PLM/uPA ratio: ratio with respect to urokinase indirect plasminogen-linked IC50, larger = greater specificity for urokinase; for pIC50: read-out: PLASMIN IC50; for inhibition at 1000 µM: read-out: PLASMIN activity observed relative to inhibitor-free controls
T3 construct: plasmin, the potent general protease produced by cleavage of plasminogen by either urokinase or tPA; purchased American Diagnostica
Experimental: (v) A chromogenic pNA assay for plasmin, the potent general protease produced by cleavage of plasminogen by either urokinase or tPA. Although urokinase initiates cellular invasiveness by generating plasmin, the additional importance of plasmin in tPA-mediated fibrinolysis dictates that plasmin itself should be free from inhibition by urokinase inhibitors designed as anti-invasiveness agents. […] All other assay conditions, as well as methods of color quantitation, were carried out as described above for the urokinase direct assay.

[4] = target: T4, human high molecular weight urokinase (Homo sapiens, UniProt P00749); assay: Urokinase Direct Assay; conditions: read-out: uPA Direct: percentage of residual urokinase activity relative to inhibitor-free controls; heading: uPA Direct: percentage of residual urokinase activity relative to inhibitor-free controls; inhibitor concentration of 1 mM
T4 construct: human high molecular weight urokinase; purchased American Diagnostica, Greenwich, Conn
Experimental: (i) A direct chromogenic assay in which urokinase cleaves a synthetic tripeptide p-nitroanilide (pNA) urokinase substrate.
Incubations were carried out at 37° C. for approximately 2 hours or until adequate yellow color developed. Color was quantitated by measuring absorbance at 405 nm (A405) using a Titertek Multiskan MCC/340 MK II microtiter plate spectrophotometer.

T2 sequence (P00750 311-562 limits assumed): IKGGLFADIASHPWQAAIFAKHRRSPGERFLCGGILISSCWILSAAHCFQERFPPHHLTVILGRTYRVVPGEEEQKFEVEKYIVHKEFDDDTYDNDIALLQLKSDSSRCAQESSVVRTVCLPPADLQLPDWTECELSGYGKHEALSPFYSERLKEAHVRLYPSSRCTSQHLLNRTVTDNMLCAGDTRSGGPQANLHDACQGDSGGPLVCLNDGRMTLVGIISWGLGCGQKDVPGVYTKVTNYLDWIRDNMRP
T2 sequence (P00750 36-310 limits assumed): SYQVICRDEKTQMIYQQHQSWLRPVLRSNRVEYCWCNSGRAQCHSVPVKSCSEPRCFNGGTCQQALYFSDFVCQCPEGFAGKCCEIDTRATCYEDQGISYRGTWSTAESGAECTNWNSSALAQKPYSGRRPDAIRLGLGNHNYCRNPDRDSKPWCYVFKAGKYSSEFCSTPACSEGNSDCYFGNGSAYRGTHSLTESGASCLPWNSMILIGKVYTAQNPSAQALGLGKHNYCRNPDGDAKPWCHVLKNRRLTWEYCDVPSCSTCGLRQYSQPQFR
T3 sequence (P00747 581-810 limits assumed): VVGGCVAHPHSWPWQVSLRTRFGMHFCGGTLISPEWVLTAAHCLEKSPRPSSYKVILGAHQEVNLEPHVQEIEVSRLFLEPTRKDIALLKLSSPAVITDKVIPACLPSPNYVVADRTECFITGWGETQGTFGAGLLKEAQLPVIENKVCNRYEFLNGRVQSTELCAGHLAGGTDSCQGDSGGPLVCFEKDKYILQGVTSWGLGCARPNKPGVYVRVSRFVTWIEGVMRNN
T3 sequence (P00747 97-580 limits assumed): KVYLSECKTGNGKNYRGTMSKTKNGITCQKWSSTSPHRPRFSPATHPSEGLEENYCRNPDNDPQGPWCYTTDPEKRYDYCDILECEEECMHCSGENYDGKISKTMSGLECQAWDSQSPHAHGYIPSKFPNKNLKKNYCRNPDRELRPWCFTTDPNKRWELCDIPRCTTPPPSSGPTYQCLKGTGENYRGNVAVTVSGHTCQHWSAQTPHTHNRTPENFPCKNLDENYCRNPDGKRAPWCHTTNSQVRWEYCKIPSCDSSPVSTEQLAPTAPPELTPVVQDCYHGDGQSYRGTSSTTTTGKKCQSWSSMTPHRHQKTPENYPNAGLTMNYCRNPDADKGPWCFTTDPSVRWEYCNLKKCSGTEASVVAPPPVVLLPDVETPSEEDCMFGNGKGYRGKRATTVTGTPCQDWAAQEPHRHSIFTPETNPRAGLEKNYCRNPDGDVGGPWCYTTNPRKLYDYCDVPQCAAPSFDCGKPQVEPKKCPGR

SMILES	pIC50 [1]	tPA/UPA ratio [2]	pIC50 [2]	PLM/uPA ratio [3]	pIC50 [3]	inhibition at 1000 µM [3]	inhibition at 1000 µM [2]	residual urokinase activity at 1000 µM [4]	inhibition at 1000 µM ([2]; 1 mM inhibitor)	inhibition at 1000 µM ([3]; 1 mM inhibitor)
Cl.N=C(N)c1cc2c(-c3cc4ccccc4o3)cccc2s1 [Compound 51, 4-(Benzo[b]furan-2-yl)benzo[b]thiophene-2-carboxamidine hydrochloride]	6.25	200	3.95	1330	3.13	–	–	–	–	–
C=CCOCc1cc2ccc3sc(C(=N)N)cc3c2s1 [Compound 208, 5-(Prop-2-en-1-yloxymethyl)thieno[4,5-b]benzo[b]thiophene-2-carboxamidine hydrochloride]	6.52	190	4.24	910	3.56	–	–	–	–	–
Cl.N=C(N)c1cc2ccc3ccccc3c2s1 [Compound 312, Naphtho[1,2-b]thiophene-2-carboxamidine hydrochloride]	5.72	> 50	< 4.00	> 50	< 4.00	–	–	–	–	–
CSc1cccc2sc(C(=N)N)cc12.Cl [Compound 58, 4-(Methylthio)benzo[b]thiophene-2-carboxamidine hydrochloride]	6.25	413	3.64	954	3.27	–	–	–	–	–
N=C(N)c1ccc(/C=C/c2cc3ccc4sc(C(=N)N)cc4c3s2)cc1 [Compound 209, 5-[E-2-(4-Carboxamidinophenyl)ethenyl]thieno[4,5-b]benzo[b]thiophene-2-carboxamidine bis-hydrochloride]	6.57	–	–	–	–	–	–	–	–	–
Cl.N=C(N)c1cc2c(C#Cc3ccco3)cccc2s1 [Compound 75, 4-[(Furan-2-yl)ethynyl]benzo[b]thiophene-2-carboxamidine hydrochloride]	6.77	194	4.48	1694	3.54	–	–	–	–	–
CCC/C=C/c1cccc2sc(C(=N)N)cc12.Cl [Compound 25, 4-(E-Pent-1-enyl)benzo[b]thiophene-2-carboxamidine hydrochloride]	6.85	343	4.32	1471	3.69	–	–	–	–	–
Cl.N=C(N)c1cc2cc(-c3ccccc3)ccc2s1 [Compound 124, 5-Phenylbenzo[b]thiophene-2-carboxamidine hydrochloride]	5.92	215	3.59	≥ 10000	–	90%	–	–	–	–
CCCc1cccc2sc(C(=N)N)cc12.Cl [Compound 9, 4-Propylbenzo[b]thiophene-2-carboxamidine hydrochloride]	6.18	250	3.78	902	3.23	–	–	–	–	–
Cl.N=C(N)c1cc2cc(I)ccc2s1 [Compound 104, 5-Iodobenzo[b]thiophene-2-carboxamidine hydrochloride]	5.62	≥ 500	–	≥ 5000	–	96%	63%	–	–	–
Cl.N=C(N)c1cc2ccsc2s1 [Compound 321, Thieno[2,3-b]thiophene-2-carboxamidine hydrochloride]	–	≥ 500	–	≥ 1000	–	–	–	4.1%	74%	88%
N=C(N)c1cc2c(C=Cc3ccccc3)cccc2s1 [Compound 63, 4-(E/Z-2-Phenylethenyl)benzo[b]thiophene-2-carboxamidine hydrochloride]	6.85	86	4.92	1250	3.76	–	–	–	–	–
CC(C)/C=C/c1cccc2sc(C(=N)N)cc12.Cl [Compound 23, 4-(E-3-Methylbut-1-enyl)benzo[b]thiophene-2-carboxamidine hydrochloride]	6.89	315	4.39	4838	3.20	–	–	–	–	–
N=C(N)c1ccc(/C=C/c2ccc3sc(C(=N)N)cc3c2)cc1 [Compound 122, 5-[E-2-(4-Carboxamidinophenyl)ethenyl]benzo[b]thiophene-2-carboxamidine bis-hydrochloride]	6.01	1.48	5.84	367	3.44	–	–	–	–	–
N=C(N)c1ccc(-c2ccc(-c3cccc4sc(C(=N)N)cc34)o2)cc1 [Compound 53, 4-[5-(4-carboxamidinophenyl)fur-2-yl]benzo[b]thiophene-2-carboxamidine bis-hydrochloride]	7.04	45	5.39	511	4.33	–	–	–	–	–
Cl.N=C(N)c1cc2c(-c3ccc(-c4ccccc4)o3)cccc2s1 [Compound 78, 4-(5-Phenylfur-2-yl)benzo[b]thiophene-2-carboxamidine hydrochloride]	6.31	53	4.59	≈ 500	~3.60	–	–	–	–	–
C=Cc1cccc2sc(C(=N)N)cc12.Cl [Compound 17, 4-Ethenylbenzo[b]thiophene-2-carboxamidine hydrochloride]	5.85	6.3	5.07	42	4.24	–	–	–	–	–
Cl.N=C(N)c1cc2cc(Br)ccc2s1 [Compound 103, 5-Bromobenzo[b]thiophene-2-carboxamidine hydrochloride]	5.46	≥ 400	–	≥ 4000	–	98%	63%	–	–	–
Cl.N=C(N)c1cc2c(-c3cccs3)cccc2s1 [Compound 50, 4-(Thien-2-yl)benzo[b]thiophene-2-carboxamidine hydrochloride]	6.30	56	4.55	762	3.42	–	–	–	–	–
CC(C)CCc1cccc2sc(C(=N)N)cc12.Cl [Compound 12, 4-(3-Methylbutyl)benzo[b]thiophene-2-carboxamidine hydrochloride]	6.47	279	4.02	847	3.54	–	–	–	–	–
COc1ccc2sc(C(=N)N)cc2c1Br.Cl [Compound 204, 4-Bromo-5-methoxybenzo[b]thiophene-2-carboxamidine hydrochloride]	5.77	251	3.37	≥ 750	–	69%	–	–	–	–
Cl.N=C(N)c1cc2c(-c3ccco3)cccc2s1 [Compound 49, 4-(Furan-2-yl)benzo[b]thiophene-2-carboxamidine hydrochloride]	6.44	53	4.72	1000	3.44	–	–	–	–	–
Cl.Cl.N=C(N)c1cc2c(-c3cccnc3)cccc2s1 [Compound 48, 4-(Pyrid-3-yl)benzo[b]thiophene-2-carboxamidine bis-hydrochloride]	6.25	152	4.07	609	3.47	–	–	–	–	–
N=C(N)c1cc2cc(-c3cc4ccccc4s3)ccc2s1 [Compound 128, 5-(Benzo[b]thien-2-yl)benzo[b]thiophene-2-carboxamidine hydrochloride]	6.03	–	–	–	–	–	–	–	–	–
CC(C)(O)C#Cc1cccc2sc(C(=N)N)cc12 [Compound 42, 4-(3-Hydroxy-3-methylbut-1-ynyl)benzo[b]thiophene-2-carboxamidine hydrochloride]	–	–	–	–	–	–	–	0.6%	–	–
CCC(/C=C/c1cccc2sc(C(=N)N)cc12)CC [Compound 28, 4-(E-3-ethylpent-1-enyl)benzo[b]thiophene-2-carboxamidine hydrochloride]	–	–	–	–	–	–	–	0.46%	–	–
N=C(N)c1ccc2sccc2c1 [Compound 314, Benzo[b]thiophene-5-carboxamidine hydrochloride]	–	–	–	–	–	–	–	43%	–	–
CC=Cc1ccc2sc(C(=N)N)cc2c1 [Compound 116, 5-(E/Z-Prop-1-enyl)benzo[b]thiophene-2-carboxamidine hydrochloride]	–	–	–	–	–	–	–	1.6%	–	–
C=CCSc1cccc2sc(C(=N)N)cc12 [Compound 59, 4-(Prop-2-en-1-ylthio)benzo[b]thiophene-2-carboxamidine hydrochloride]	–	–	–	–	–	–	–	1.1%	–	–
